# Laboratory results from patent US20100113334A1, “METHODS FOR REDUCING OR PREVENTING TRANSMISSION OF NOSOCOMIAL PATHOGENS IN A HEALTH CARE FACILITY” (priority 2003, published 2010).
# Assays:
# [1] = test system: clinical isolate VanA strain of E. faecium (VRE); test: VRE suppression in a mouse model (Example 1); type: in vivo, mice
# From the text: (§1) Mice were colonized with a clinical isolate VanA strain of E. faecium (VRE) isolated from a septicemic patient. A single inoculation of 5×10^8 cfu VRE by oral gavage (Day 0) was followed by treatment with vancomycin in the drinking water to maintain colonization. On day 22, each group received the same vancomycin-containing drinking water. […] The control group consisted of five mice, while the ramoplanin group consisted of four mice.
# Total Enterococci = test: VRE suppression in a mouse model (Example 1), total enterococci in faeces; type: in vivo, mice
# From the text: as §1
# [2] = test system: E. faecium C68 (VanB-type clinical VRE isolate); test: Minimum-inhibitory concentration for VRE C68; type: cell-based
# Method: Pathogens Studied: E. faecium C68, a previously described VanB-type clinical VRE isolate, was used for the following murine VRE experiments (Donskey et al., J. Microbial. Meth. 1807: 1-8, 2003). […] Klebsiella pneumoniae P62 is a clinical isolate that produces an SHV type extended-spectrum β-lactamase (ESBL). Candida glabrata A239 is a clinical isolate with a fluconazole minimum-inhibitory concentration of 2 μg/mL.
# VRE C68 = test: Eradication of VRE stool colonization in mice (Example 2); type: in vivo
# Method: (§2) Quantification of Stool Pathogens: Fresh stool specimens were processed as described by Donskey et al. (supra). In order to quantify VRE, K. pneumoniae, and C. glabrata, diluted samples were plated onto Enterococcosel agar containing vancomycin 20 μg/mL, MacConkey agar containing ceftazidime 10 μg/mL, or Sabouraud Dextrose Agar (Becton, Dickinson, and Company, Sparks, Md.) containing piperacillin/tazobactam 16 μg/mL and linezolid 8 μg/mL, respectively. The plates were incubated in room air at 37° C. far 24 or 48 hours, and the number of colony-forming units (CFU) of each pathogen per gram of sample was calculated.
# High-density VRE stool colonization was established in mice by administering subcutaneous clindamycin (1.4 mg) once each day for 2 days before and 7 days after orogastric inoculation of 10^6 colony-forming units (CFU) of VRE C68 using a stainless steel feeding tube (Perfektum, Popper & Sons, New Hyde Park, N.Y.). […] Six mice were included in each treatment group.
# To evaluate the possibility that ramoplanin-treated mice were being re-exposed to VRE from their environment, broth-enrichment cultures for VRE were performed as previously described Ray et al. (JAMA 287: 1400-1401, 2002) after contacting cage bottoms and tops, water bottles, and food with pre-moistened cotton-tipped swabs.
# Lactobacillus species = test: Effect on indigenous stool microflora (Example 3), quantitative culture; type: in vivo, mice
# Method: Female CF1 mice (Harlan Sprague-Dawley, Indianapolis) weighing 25-30 g were used in these experiments. In order to minimize the risk of cross-contamination, mice were housed in individual cages with plastic filter tops. […] Quantitative cultures for facultative and aerobic gram-negative bacilli, enterococci, total anaerobes, Bacteroides species, Lactobacillus species, and Clostridium species were performed by plating serially-diluted specimens onto MacConkey agar (Difco Laboratories, Detroit), Enterococcosel agar (Becton Dickinson, Cockeysville, Md.), Brucella agar (Becton Dickinson), Bacteroides bile esculin agar, Rogosa agar, and Egg Yolk agar, respectively. For culture of anaerobes, stool samples were processed inside an anaerobic chamber (Coy Laboratories, Grass Lake, Mich.). Denaturing gradient gel electrophoresis (DGGE) of PCR-amplified bacterial ribosomal RNA genes from stool was performed as described by Donskey et al. (supra).
# VRE [3] = test: Prevention of cross-transmission of VRE among mice in communal cages (Example 5); type: in vivo
# Method: One set of experiments was performed to evaluate the ability of ramoplanin to prevent cross-transmission and overgrowth of VRE among mice in communal cages. High-density VRE stool colonization (˜7 log10 CFU/g) was established in 2 mice as described above. […] All mice were treated with subcutaneous clindamycin (1.4 mg) once daily for 5 days. After 9 days, all mice were separated into individual cages and supplied with regular drinking water.
# K. pneumoniae P62 = test: Establishment of colonization during ramoplanin treatment (Example 6); type: in vivo, mice; details: inoculated on day 2 of a 6-day course, 100 μg/ml in drinking water
# Method: as §2
# The density of the pathogens in stool was monitored every 3-4 days. Four mice were included in each treatment group.
# [4] = test system: Gram-negative bacteria (enteric bacteria and Bacteroides spp.); test: Activity on stool microflora of healthy volunteers (Example 7.1); type: in vivo, human; details: 10 days BID
# Method: (§3) The predetermined dose was reconstituted in 5 mL water per vial, mixed with 50 mL of sweetened, aromatized solution, and immediately administered orally to the subjects.
# (§4) Faecal microbial concentrations (organisms per gram of faecal matter) were determined at the following timepoints: day-4 (pre-treatment), days 4 and 10 (treatment), and days […] and 24 (follow-up). Tolerability and absorption were also investigated.
# [5] = test system: Gram-positive bacteria (staphylococci, streptococci, enterococci); test: as above; type: in vivo, human
# Method: as §3, §4
# yeast = test: as above; type: in vivo, human; details: 10 days BID
# Method: as §3, §4
# VRE [6] = test: Multiple dose study in asymptomatic carriers of gastro-intestinal VRE (Example 7.2); type: in vivo, human; details: for patients with no detectable VRE: p<0.01; for patients who remained VRE free: Day 14 (seven days after cessation)
# Method: Patients were assessed by rectal swab on Days 7, 14, and 21 to determine the presence or absence of VRE. […] All VRE isolates were tested for susceptibility to ramoplanin.
# E faecalis = details: 30 strains; cited from earlier work
# E. faecium = details: 10 strains; cited from earlier work
# S. aureus (MSSA) = details: 140 strains; cited from earlier work
# S. aureus (MRSA) = details: 100 strains; cited from earlier work
# [7] = Day 22, prior to ramoplanin therapy
# [8] = Day 29, completion of ramoplanin therapy
# [9] = Day 36, 7 days after completion of ramoplanin therapy
# [10] = day 8 of 100 μg/ml drinking water, 8 mice
substance,measurement,setting,value
Ramoplanin,% Mice with VRE,[1]; [7],100%
same,Enterococci: VRE,[1]; [7],9.7 log 10 cfu/g faeces
same,Enterococci: VRE,[1]; [8],<3.1 log 10 cfu/g faeces
same,% Mice with VRE,"[1]; Day 29, completion of ramoplanin therapy (15 mg/kg/day in drinking water, with 25 mg/kg/day vancomycin)",0%
same,% Mice with VRE,[1]; [9],100%
same,Enterococci: VRE,[1]; [9],8.7 log 10 cfu/g faeces
same,VRE concentration per gram of faeces,"[1]; after one week of treatment, all animals",< 3.1 log units
same,Enterococci: Total Enterococci,Total Enterococci; [7],9.8 log 10 cfu/g faeces
same,Enterococci: Total Enterococci,Total Enterococci; [8],<2.4 log 10 cfu/g faeces
same,Enterococci: Total Enterococci,Total Enterococci; [9],8.6 log 10 cfu/g faeces
same,minimum-inhibitory concentration,[2],0.125 µg/mL
same,mice that developed a recurrence of colonization after discontinuing treatment,VRE C68; 100 μg/ml in drinking water,One hundred
same,mice that developed a detectable recurrence of colonization after discontinuing treatment,VRE C68; 500 μg/ml in drinking water,50%
same,levels of VRE in stool during treatment,"VRE C68; 100 or 500 μg/ml in drinking water, 8 days, P<0.0001 vs controls",undetectable levels
same,mice with VRE detectable in sections of the cecal lining,VRE C68; [10],25%
same,mice with negative stool and cecal content cultures for VRE,VRE C68; [10],100%
same,level of VRE in sections of the cecal lining,"VRE C68; the 2 positive mice, day 8 of 100 μg/ml drinking water",2-3 log10 CFU/g
same,Lactobacillus species in stool,Lactobacillus species; 3 days after discontinuation (day 10),returned to pre-treatment levels
same,Lactobacillus species in stool,"Lactobacillus species; ramoplanin treatment, P<0.001",markedly reduced
same,VRE colonization in the colonized mouse added to the communal cage,"VRE [3]; 100 μg/ml in drinking water, clindamycin-treated mice",rapidly inhibited
same,VRE colonization of the other mice during ramoplanin treatment,"VRE [3]; 100 μg/ml in drinking water, communal cage",none of the other mice developed detectable levels of colonization
same,mice with VRE colonization detected after discontinuation of ramoplanin,"VRE [3]; within 5 days after transfer to individual cages, 4 of 5 mice",80%
same,overgrowth of K. pneumoniae P62 in stool,K. pneumoniae P62,facilitated overgrowth
same,effect on faecal Gram-negative bacteria,[4],no effect
same,"faecal concentrations of staphylococci, streptococci, and enterococci","[5]; by day 10, all subjects",below the level of detection
same,effect on faecal Gram-positive bacteria,[5]; first measurement on day 4,marked effect
same,effect on faecal yeast,yeast,no effect
same,patients with no detectable VRE,"VRE [6]; Day 7, 100 mg BID for seven days, 17 of 21 patients",81.0%
same,patients with no detectable VRE,"VRE [6]; Day 7, 400 mg BID for seven days, 18 of 20 patients",90.0%
same,patients who remained VRE free,"VRE [6]; 100 mg BID, 6 of 21 patients",28.6%
same,patients who remained VRE free,"VRE [6]; 400 mg BID, 7 of 17 patients",41.2%
same,number of VRE-free patients,VRE [6]; Day 21,comparable among all treatment groups
same,Ramoplanin MIC90,E faecalis,0.5 µg/mL
same,Ramoplanin MIC90,E. faecium,0.5 µg/mL
same,Ramoplanin MIC90,S. aureus (MSSA),0.5 µg/mL
same,Ramoplanin MIC90,S. aureus (MRSA),0.25 µg/mL
